Test results taken from US20100120778A1, “QUINOXALINE-BASED LXR MODULATORS” (Wyeth, priority 2008, published 2010).

Biological target: T1, human LXRβ (Homo sapiens, UniProt P55055)
T1 construct: biotin (biotinylated); made in house; host or cells: E. coli
T1 sequence (P55055 1-460): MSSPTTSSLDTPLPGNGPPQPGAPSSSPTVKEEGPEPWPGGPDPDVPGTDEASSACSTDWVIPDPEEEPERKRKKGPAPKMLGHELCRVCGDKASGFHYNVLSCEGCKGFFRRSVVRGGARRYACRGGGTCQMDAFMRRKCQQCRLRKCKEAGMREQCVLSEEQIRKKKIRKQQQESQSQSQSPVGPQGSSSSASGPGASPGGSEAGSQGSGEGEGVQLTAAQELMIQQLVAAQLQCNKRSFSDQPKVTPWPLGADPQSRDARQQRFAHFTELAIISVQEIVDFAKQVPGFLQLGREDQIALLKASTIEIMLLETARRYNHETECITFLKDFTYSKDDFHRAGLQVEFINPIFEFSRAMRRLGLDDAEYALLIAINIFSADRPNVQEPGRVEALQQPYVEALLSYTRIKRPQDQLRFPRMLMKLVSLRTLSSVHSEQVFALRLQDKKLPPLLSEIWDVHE
Experiment: Ligand-binding test procedure for human LXRβ (3H T0901317 tracer, flash plates)
Settings: biotinylated hLXRβ, tracer 3H T0901317, +4° C. over night
Experimental: I. Ligand-Binding Test Procedure for Human LXRβ.
Receptor source: E. coli extracted from cells expressing biotinylated hLXRβ. Extract was made in a similar buffer as above, but with 50 mM TRIS.
Washed streptavidin and coated flash plates with wash buffer. Diluted receptor extract to give Bmax˜4000 cpm and add to the wells. Wrapped the plates in aluminum foil and stored them at +4° C. overnight.
Made a dilution series in DMSO of the test ligands. Made a 5 nM solution of the radioactive tracer in buffer. Mixed 250 μl diluted tracer with 5 μl of the test ligand from each concentration of the dilution series. Washed the receptor-coated flash plates. Added 200 μl per well of the ligand/radiolabel mixture to the receptor-coated flash plates. Wrapped the plates in aluminum foil and incubate at +4° C. over night.
Aspirated wells, and washed the flashed plates. Sealed the plate.
Measured the remaining radioactivity in the plate.

Row | SMILES | IC50 [µM]
1 | CS(=O)(=O)c1ccccc1-c1ccc(-c2cnc3cccc(C(F)(F)F)c3n2)cc1 [Example 24, 2-[2′-(methylsulfonyl)biphenyl-4-yl]-8-(trifluoromethyl)quinoxaline] | > 1
2 | Cc1nc2c(C(F)(F)F)cccc2nc1-c1ccc(-c2ccc(CCC(=O)O)cc2)cc1 [Example 55, 3-{4′-[3-methyl-5-(trifluoromethyl)quinoxalin-2-yl]biphenyl-4-yl}propanoic acid] | > 1
3 | Cc1nc2c(C(F)(F)F)cccc2nc1-c1cccc(-c2cccc(S(C)(=O)=O)c2)c1 [Example 19, 3-methyl-2-[3′-(methylsulfonyl)biphenyl-3-yl]-5-(trifluoromethyl)quinoxaline] | > 1
4 | CC(C)CS(=O)(=O)c1cccc(Oc2cccc(-c3cnc4cccc(C(F)(F)F)c4n3)c2)c1 [Example 17, 2-{3-[3-(isobutylsulfonyl)phenoxy]phenyl}-8-(trifluoromethyl)quinoxaline] | > 1
5 | Cc1nc2cccc(C(F)(F)F)c2nc1-c1cc(Oc2ccc(S(=O)(=O)CC#N)cc2)ccc1Cl [Example 38, [(4-{4-chloro-3-[3-methyl-8-(trifluoromethyl)quinoxalin-2-yl]phenoxy}phenyl)sulfonyl]-acetonitrile] | > 1
6 | CS(=O)(=O)c1cccc(Oc2cccc(-c3cnc4c(C(F)(F)F)cccc4n3)c2)c1 [Example 14, 2-{3-[3-(methylsulfonyl)phenoxy]phenyl}-5-(trifluoromethyl)quinoxaline] | > 1
7 | Cc1nc2c(C(F)(F)F)cccc2nc1-c1cc(Oc2cccc(S(=O)(=O)CCCN)c2)ccc1Cl [Example 45, 3-[(3-{4-chloro-3-[3-methyl-5-(trifluoromethyl)quinoxalin-2-yl]phenoxy}phenyl)sulfonyl]-propan-1-amine] | 0.063
8 | CS(=O)(=O)c1cccc(-c2ccc(-c3nc4cccc(C(F)(F)F)c4nc3N)cc2)c1 [Example 33, 3-[3′-(methylsulfonyl)biphenyl-4-yl]-8-(trifluoromethyl)quinoxalin-2-amine] | 0.723
9 | Cc1nc2c(Cl)cccc2nc1Oc1ccc(-c2cccc(S(N)(=O)=O)c2)cc1 [Example 92, 4′-[(5-chloro-3-methylquinoxalin-2-yl)oxy]biphenyl-3-sulfonamide] | 2.47
10 | Cc1nc2c(C(F)(F)F)cccc2nc1-c1cc(Oc2ccc(S(=O)(=O)CC#N)cc2)ccc1Cl [Example 41, [(4-{4-chloro-3-[3-methyl-5-(trifluoromethyl)quinoxalin-2-yl]phenoxy}phenyl)sulfonyl]-acetonitrile] | > 1
11 | Cc1nc2c(C(F)(F)F)cccc2nc1-c1ccc(-c2ccc(C(=O)N3CCCC3)cc2)cc1 [Example 54, 3-methyl-2-[4′-(pyrrolidin-1-ylcarbonyl)biphenyl-4-yl]-5-(trifluoromethyl)quinoxaline] | > 1
12 | Cc1nc2c(C(F)(F)F)cccc2nc1-c1ccc(-c2cccc(S(C)(=O)=O)c2)cc1F [Example 28, 2-[3-fluoro-3′-(methylsulfonyl)biphenyl-4-yl]-3-methyl-5-(trifluoromethyl)quinoxaline] | > 1
13 | CNS(=O)(=O)c1cccc(-c2ccc(Oc3nc4cccc(Cl)c4nc3C)cc2)c1 [Example 91, 4′-[(5-chloro-3-methylquinoxalin-2-yl)oxy]-N-methylbiphenyl-3-sulfonamide] | 0.933
14 | CCS(=O)(=O)c1cccc(Oc2ccc(-c3nc4c(C(F)(F)F)cccc4nc3C)cc2)c1 [Example 15, 3-{4-[3-(ethylsulfonyl)phenoxy]phenyl}-2-methyl-5-(trifluoromethyl)quinoxaline] | > 1
15 | Cc1nc2c(C(F)(F)F)cccc2nc1-c1cc(Oc2cccc(S(C)(=O)=O)c2)ccc1-c1ccccc1 [Example 40, 3-methyl-2-{4-[3-(methylsulfonyl)phenoxy]biphenyl-2-yl}-5-(trifluoromethyl)quinoxaline] | > 1
16 | CNS(=O)(=O)c1cccc(-c2cccc(Oc3nc4cccc(Cl)c4nc3C)c2)c1 [Example 88, 3′-[(5-chloro-3-methylquinoxalin-2-yl)oxy]-N-methylbiphenyl-3-sulfonamide] | > 1
17 | CNS(=O)(=O)c1cccc(-c2ccc(-c3nc4c(C(F)(F)F)cccc4nc3C)cc2)c1 [Example 48, N-methyl-4′-[3-methyl-8-(trifluoromethyl)quinoxalin-2-yl]biphenyl-3-sulfonamide] | 1.09
18 | CNS(=O)(=O)c1cccc(-c2ccc(Oc3cnc4c(Cl)cccc4n3)cc2)c1 [Example 86, 4′-[(5-Chloroquinoxalin-2-yl)oxy]-N-methylbiphenyl-3-sulfonamide] | > 1

Row | SMILES | IC50 [µM]
19 | Cc1nc2c(Cl)cccc2nc1Oc1cccc(-c2cccc(S(N)(=O)=O)c2)c1 [Example 89, 3′-[(5-chloro-3-methylquinoxalin-2-yl)oxy]biphenyl-3-sulfonamide] | > 1
20 | CS(=O)(=O)Nc1cccc(-c2ccc(Oc3cnc4c(Cl)cccc4n3)cc2)c1 [Example 87, N-{4′-[(5-chloroquinoxalin-2-yl)oxy]biphenyl-3-yl}methanesulfonamide] | > 1
21 | Cc1nc2c(Cl)ccc(Cl)c2nc1-c1ccc(-c2cccc(S(C)(=O)=O)c2)cc1 [Example 35, 5,8-dichloro-2-methyl-3-[3′-(methylsulfonyl)biphenyl-4-yl]quinoxaline] | 0.0995
22 | Cc1nc2c(C(F)(F)F)cccc2nc1-c1ccc(-c2ccccc2S(C)(=O)=O)cc1 [Example 21, 3-methyl-2-[2′-(methylsulfonyl)biphenyl-4-yl]-5-(trifluoromethyl)quinoxaline] | > 1
23 | Cc1nc2cccc(C(F)(F)F)c2nc1-c1cc(Oc2ccc(S(C)(=O)=O)cc2)ccc1Cl [Example 39, 3-{2-chloro-5-[4-(methylsulfonyl)phenoxy]phenyl}-2-methyl-5-(trifluoromethyl)quinoxaline] | > 1
24 | CNS(=O)(=O)c1cccc(-c2cccc(Oc3cnc4c(Cl)cccc4n3)c2)c1 [Example 84, 3′-[(5-Chloroquinoxalin-2-yl)oxy]-N-methylbiphenyl-3-sulfonamide] | 0.64
25 | CC(=O)Nc1cccc(-c2ccc(-c3nc4cccc(C(F)(F)F)c4nc3C)cc2)c1 [Example 51, N-{4′-[3-methyl-5-(trifluoromethyl)quinoxalin-2-yl]biphenyl-3-yl}acetamide] | > 1
26 | Cc1nc2c(C(F)(F)F)cccc2nc1-c1ccc(-c2cccc(NS(C)(=O)=O)c2)cc1 [Example 49, N-{4′-[3-methyl-5-(trifluoromethyl)quinoxalin-2-yl]biphenyl-3-yl}methanesulfonamide] | > 1
27 | CS(=O)(=O)c1cccc(-c2ccc(-c3cnc4cccc(C(F)(F)F)c4n3)cc2)c1 [Example 25, 2-[3′-(methylsulfonyl)biphenyl-4-yl]-8-(trifluoromethyl)quinoxaline] | > 1
28 | Cc1nc2c(C(F)(F)F)cccc2nc1-c1cccc(-c2ccc(S(C)(=O)=O)cc2)c1 [Example 20, 3-methyl-2-[4′-(methylsulfonyl)biphenyl-3-yl]-5-(trifluoromethyl)quinoxaline] | > 1
29 | CS(=O)(=O)c1cccc(-c2ccc(-c3nc4ccccc4nc3C(F)(F)F)cc2)c1 [Example 26, 2-[3′-(methylsulfonyl)biphenyl-4-yl]-3-(trifluoromethyl)quinoxaline] | > 1
30 | Cc1nc2cccc(C(F)(F)F)c2nc1-c1cc(Oc2ccccc2S(C)(=O)=O)ccc1Cl [Example 44, 3-{2-chloro-5-[2-(methylsulfonyl)phenoxy]phenyl}-2-methyl-5-(trifluoromethyl)quinoxaline] | > 1
31 | CCc1nc2cccc(C(F)(F)F)c2nc1-c1ccc(-c2cccc(S(C)(=O)=O)c2)cc1 [Example 34, 2-ethyl-3-[3′-(methylsulfonyl)biphenyl-4-yl]-5-(trifluoromethyl)quinoxaline] | 0.353
32 | CS(=O)(=O)c1cccc(Oc2ccc(-c3nc4ccccc4nc3C(F)(F)F)cc2)c1 [Example 27, 2-{4-[3-(methylsulfonyl)phenoxy]phenyl}-3-(trifluoromethyl)quinoxaline] | > 1
33 | COc1cccc2nc(C)c(-c3ccc(-c4cccc(S(C)(=O)=O)c4)cc3)nc12 [Example 69, 5-methoxy-2-methyl-3-[3′-(methylsulfonyl)biphenyl-4-yl]quinoxaline] | > 1
34 | Cc1nc2c(C(F)(F)F)cccc2nc1-c1ccc(-c2ccc(S(C)(=O)=O)cc2)cc1 [Example 18, 3-methyl-2-[4′-(methylsulfonyl)biphenyl-4-yl]-5-(trifluoromethyl)quinoxaline] | > 1
35 | CS(=O)(=O)Nc1cccc(-c2cccc(Oc3cnc4c(Cl)cccc4n3)c2)c1 [Example 85, N-{3′-[(5-Chloroquinoxalin-2-yl)oxy]biphenyl-3-yl}methanesulfonamide] | 0.257
36 | CS(=O)(=O)c1ccc(-c2ccc(-c3cnc4cccc(C(F)(F)F)c4n3)cc2)cc1 [Example 23, 2-[4′-(methylsulfonyl)biphenyl-4-yl]-8-(trifluoromethyl)quinoxaline] | > 1
